Data reported in patent publication US10479784B2, “Substituted pyrazin-2-amines as inhibitors of ATR kinase” (Vertex Pharmaceuticals Incorporated, priority 2008, dated 2019).

molecular target: full-length ATR (Homo sapiens (Human), UniProt Q13535); assay: ATR Inhibition Assay (radioactive-phosphate incorporation); type: biochemical; settings: read-out: ATR Ki
Experimental: Compounds were screened for their ability to inhibit ATR kinase using a radioactive-phosphate incorporation assay. Assays were carried out in a mixture of 50 mM Tris/HCl (pH 7.5), 10 mM MgCl2 and 1 mM DTT. Final substrate concentrations were […] [γ-33P]ATP (3mCi 33P ATP/mmol ATP, Perkin Elmer) and 800 μM target peptide ([…]).
Assays were carried out at 25° C. in the presence of 5 nM full-length ATR. An assay stock buffer solution was prepared containing all of the reagents listed above, with the exception of ATP and the test compound of interest. […] The plate was pre-incubated for 10 minutes at 25° C. and the reaction initiated by addition of 15 μL [γ-33P]ATP (final concentration 10 μM).
The reaction was stopped after […] by the addition of 30 μL 0.1M phosphoric acid containing 2 mM ATP. A multiscreen phosphocellulose filter 96-well plate (Millipore, Cat no. MAPHN0B50) was pretreated with 100 μL 0.2M phosphoric acid prior to the addition of 45 μL of the stopped assay mixture. […] After drying, 100 μL Optiphase ‘SuperMix’ liquid scintillation cocktail (Perkin Elmer) was added to the well prior to scintillation counting (1450 Microbeta Liquid Scintillation Counter, Wallac).
After removing mean background values for all of the data points, Ki(app) data were calculated from non-linear regression analysis of the initial rate data using the Prism software package (GraphPad Prism version 3.0cx for Macintosh, GraphPad Software, San Diego Calif., USA).

Sequence of full-length ATR (Q13535 whole entry): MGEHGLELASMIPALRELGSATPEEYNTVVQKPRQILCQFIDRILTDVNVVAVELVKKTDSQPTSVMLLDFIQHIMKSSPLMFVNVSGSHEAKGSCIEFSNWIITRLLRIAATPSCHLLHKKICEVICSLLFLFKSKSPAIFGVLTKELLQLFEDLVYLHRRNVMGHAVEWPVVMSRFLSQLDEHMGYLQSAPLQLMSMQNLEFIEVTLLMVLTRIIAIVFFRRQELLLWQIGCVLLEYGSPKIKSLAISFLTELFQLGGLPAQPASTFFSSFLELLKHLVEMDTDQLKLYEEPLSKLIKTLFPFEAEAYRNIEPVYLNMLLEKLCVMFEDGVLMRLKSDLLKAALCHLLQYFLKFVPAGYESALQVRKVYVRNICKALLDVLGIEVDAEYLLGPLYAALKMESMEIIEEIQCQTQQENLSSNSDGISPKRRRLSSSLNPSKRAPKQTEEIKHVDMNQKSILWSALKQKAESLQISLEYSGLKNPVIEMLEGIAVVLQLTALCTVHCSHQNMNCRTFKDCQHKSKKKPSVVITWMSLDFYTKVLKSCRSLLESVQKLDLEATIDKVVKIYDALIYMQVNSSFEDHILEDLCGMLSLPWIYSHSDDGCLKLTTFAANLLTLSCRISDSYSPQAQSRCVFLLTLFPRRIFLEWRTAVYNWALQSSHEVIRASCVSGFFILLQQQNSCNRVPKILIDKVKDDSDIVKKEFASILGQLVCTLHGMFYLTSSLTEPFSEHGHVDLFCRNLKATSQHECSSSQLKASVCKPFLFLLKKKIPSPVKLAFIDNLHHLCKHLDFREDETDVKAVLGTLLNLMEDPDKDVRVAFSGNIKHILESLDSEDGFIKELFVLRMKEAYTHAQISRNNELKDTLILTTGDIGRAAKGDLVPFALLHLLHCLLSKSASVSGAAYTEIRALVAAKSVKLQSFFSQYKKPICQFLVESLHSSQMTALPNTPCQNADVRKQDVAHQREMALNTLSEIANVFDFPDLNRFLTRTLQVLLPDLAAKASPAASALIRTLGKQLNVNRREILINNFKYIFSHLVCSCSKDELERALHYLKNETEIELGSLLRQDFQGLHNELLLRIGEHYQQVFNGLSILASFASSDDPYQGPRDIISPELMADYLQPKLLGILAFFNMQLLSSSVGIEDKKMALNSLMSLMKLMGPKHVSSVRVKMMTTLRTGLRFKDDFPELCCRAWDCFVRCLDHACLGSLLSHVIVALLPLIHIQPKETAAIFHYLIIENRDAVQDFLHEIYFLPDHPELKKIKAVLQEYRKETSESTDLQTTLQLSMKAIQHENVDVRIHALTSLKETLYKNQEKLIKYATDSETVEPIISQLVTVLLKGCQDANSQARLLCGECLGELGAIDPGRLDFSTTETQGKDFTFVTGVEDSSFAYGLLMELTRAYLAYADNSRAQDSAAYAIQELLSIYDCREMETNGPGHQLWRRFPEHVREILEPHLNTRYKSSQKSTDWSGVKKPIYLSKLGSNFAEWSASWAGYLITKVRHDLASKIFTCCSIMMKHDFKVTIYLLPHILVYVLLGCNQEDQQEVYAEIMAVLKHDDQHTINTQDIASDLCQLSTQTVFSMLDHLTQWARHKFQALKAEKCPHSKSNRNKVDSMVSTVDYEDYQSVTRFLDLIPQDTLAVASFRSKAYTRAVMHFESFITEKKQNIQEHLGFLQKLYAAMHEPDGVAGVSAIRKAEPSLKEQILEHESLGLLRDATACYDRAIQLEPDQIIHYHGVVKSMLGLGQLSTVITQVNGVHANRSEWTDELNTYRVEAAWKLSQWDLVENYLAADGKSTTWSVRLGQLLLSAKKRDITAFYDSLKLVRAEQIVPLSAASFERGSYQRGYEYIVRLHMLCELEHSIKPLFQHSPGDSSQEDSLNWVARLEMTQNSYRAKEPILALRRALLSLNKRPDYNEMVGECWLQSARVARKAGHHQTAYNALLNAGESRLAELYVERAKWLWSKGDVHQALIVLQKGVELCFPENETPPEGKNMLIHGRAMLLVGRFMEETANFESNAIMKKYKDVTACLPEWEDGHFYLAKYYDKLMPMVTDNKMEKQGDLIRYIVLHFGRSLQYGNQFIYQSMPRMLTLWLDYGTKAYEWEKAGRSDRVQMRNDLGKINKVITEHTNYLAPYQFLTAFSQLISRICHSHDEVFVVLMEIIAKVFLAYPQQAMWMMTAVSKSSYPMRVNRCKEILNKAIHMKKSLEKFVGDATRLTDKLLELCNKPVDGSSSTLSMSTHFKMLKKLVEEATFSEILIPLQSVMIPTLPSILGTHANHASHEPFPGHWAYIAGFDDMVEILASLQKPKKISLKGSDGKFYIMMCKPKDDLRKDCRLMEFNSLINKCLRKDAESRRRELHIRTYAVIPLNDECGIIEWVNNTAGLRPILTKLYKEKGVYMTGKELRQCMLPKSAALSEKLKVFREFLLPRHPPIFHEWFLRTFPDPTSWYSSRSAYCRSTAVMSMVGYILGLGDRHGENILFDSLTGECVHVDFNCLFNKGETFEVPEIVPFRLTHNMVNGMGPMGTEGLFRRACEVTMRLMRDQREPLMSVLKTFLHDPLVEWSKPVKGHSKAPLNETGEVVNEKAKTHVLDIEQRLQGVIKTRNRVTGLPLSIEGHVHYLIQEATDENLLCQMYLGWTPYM

SMILES | Ki
CC(C)S(=O)(=O)c1ccc(-c2cnc(N)c(-c3nnc(-c4ccc(C(N)C(F)(F)F)cc4)o3)n2)cc1 (stereo in doubt) [IA-325, 3-[5-[4-[(1S)-1-amino-2,2,2-trifluoro-ethyl]phenyl]-1,3,4-oxadiazol-2-yl]-5-(4-isopropylsulfonylphenyl)pyrazin-2-amine] | 10 to 100 nM
COc1ccc(-c2cnc(N)c(C(=O)Nc3ccccc3)n2)cc1 [Compound I-1, 3-amino-6-(4-methoxyphenyl)-N-phenylpyrazine-2-carboxamide] | 100 to 5000 nM
N#Cc1cnccc1-c1cnc(N)c(C(=O)Nc2ccccc2)n1 [Compound I-2, 3-amino-6-(3-cyanopyridin-4-yl)-N-phenylpyrazine-2-carboxamide] | ≤ 10 nM
CS(=O)(=O)c1cccc(-c2cnc(N)c(C(=O)Nc3ccccc3)n2)c1 [Compound I-3] | 100 to 5000 nM
Nc1ncc(-c2ccc(F)cc2)nc1C(=O)Nc1ccccc1 [Compound I-4, 3-amino-6-(4-fluorophenyl)-N-phenylpyrazine-2-carboxamide] | 100 to 5000 nM
CS(=O)(=O)Nc1ccc(-c2cnc(N)c(C(=O)Nc3ccccc3)n2)cc1 [Compound I-5, 3-amino-6-(4-(methylsulfonamido)phenyl)-N-phenylpyrazine-2-carboxamide] | 10 to 100 nM
Nc1ncc(-c2ccccc2C(F)(F)F)nc1C(=O)Nc1ccccc1 [Compound I-6, 3-amino-N-phenyl-6-(2-(trifluoromethyl)phenyl)pyrazine-2-carboxamide] | 100 to 5000 nM
Nc1ncc(-c2ccc(C(=O)O)cc2)nc1C(=O)Nc1ccccc1 [Compound I-7, 4-(5-amino-6-(phenylcarbamoyl)pyrazin-2-yl)benzoic acid] | 10 to 100 nM
Nc1ncc(-c2cccc(C(=O)O)c2)nc1C(=O)Nc1ccccc1 [Compound I-8, 3-(5-amino-6-(phenylcarbamoyl)pyrazin-2-yl)benzoic acid] | 100 to 5000 nM
Nc1ncc(-c2cccc(F)c2)nc1C(=O)Nc1ccccc1 [Compound I-9, 3-amino-6-(3-fluorophenyl)-N-phenylpyrazine-2-carboxamide] | 100 to 5000 nM
N#Cc1cccc(-c2cnc(N)c(C(=O)Nc3ccccc3)n2)c1 [Compound I-10, 3-amino-6-(3-cyanophenyl)-N-phenylpyrazine-2-carboxamide] | 100 to 5000 nM
Cc1ccccc1-c1cnc(N)c(C(=O)Nc2ccccc2)n1 [Compound I-11, 3-amino-N-phenyl-6-o-tolylpyrazine-2-carboxamide] | 100 to 5000 nM
Nc1ncc(-c2cccc(N3CCOCC3)c2)nc1C(=O)Nc1ccccc1 [Compound I-12, 3-amino-6-(3-morpholinophenyl)-N-phenylpyrazine-2-carboxamide] | 100 to 5000 nM
Nc1ncc(-c2ccc(N3CCOCC3)cc2)nc1C(=O)Nc1ccccc1 [Compound I-13, 3-amino-6-(4-morpholinophenyl)-N-phenylpyrazine-2-carboxamide] | 100 to 5000 nM
Nc1ncc(-c2ccccc2F)nc1C(=O)Nc1ccccc1 [Compound I-14, 3-amino-6-(2-fluorophenyl)-N-phenylpyrazine-2-carboxamide] | 100 to 5000 nM
Nc1ncc(-c2ccccc2)nc1C(=O)Nc1ccccc1 [Compound I-15, 3-amino-N,6-diphenylpyrazine-2-carboxamide] | 100 to 5000 nM
Nc1ncc(-c2ccc(CO)cc2)nc1C(=O)Nc1ccccc1 [Compound I-16, 3-amino-6-(4-(hydroxymethyl)phenyl)-N-phenylpyrazine-2-carboxamide] | 100 to 5000 nM
CC(=O)c1ccc(-c2cnc(N)c(C(=O)Nc3ccccc3)n2)cc1 [Compound I-17, 6-(4-acetylphenyl)-3-amino-N-phenylpyrazine-2-carboxamide] | 100 to 5000 nM
NC(=O)c1cccc(-c2cnc(N)c(C(=O)Nc3ccccc3)n2)c1 [Compound I-18, 3-amino-6-(3-carbamoylphenyl)-N-phenylpyrazine-2-carboxamide] | 100 to 5000 nM
Nc1ncc(-c2ccccc2CO)nc1C(=O)Nc1ccccc1 [Compound I-19, 3-amino-6-(2-(hydroxymethyl)phenyl)-N-phenylpyrazine-2-carboxamide] | 10 to 100 nM
Nc1ncc(-c2cccc(C(=O)N3CCOCC3)c2)nc1C(=O)Nc1ccccc1 [Compound I-20, 3-amino-6-(3-(morpholine-4-carbonyl)phenyl)-N-phenylpyrazine-2-carboxamide] | 10 to 100 nM
N#Cc1ccc(-c2cnc(N)c(C(=O)Nc3ccccc3)n2)cc1 [Compound I-21, 3-amino-6-(4-cyanophenyl)-N-phenylpyrazine-2-carboxamide] | 10 to 100 nM

SMILES | Ki
CC(=O)c1cccc(-c2cnc(N)c(C(=O)Nc3ccccc3)n2)c1 [Compound I-22, 6-(3-acetylphenyl)-3-amino-N-phenylpyrazine-2-carboxamide] | 10 to 100 nM
Nc1ncc(-c2ccc(C(=O)CN3CCC(O)CC3)cc2)nc1C(=O)Nc1ccccc1 [Compound I-23, 3-amino-6-(4-(2-(4-hydroxypiperidin-1-yl)acetyl)phenyl)-N-phenylpyrazine-2-carboxamide] | 10 to 100 nM
CN(C)C(=O)c1ccc(-c2cnc(N)c(C(=O)Nc3ccccc3)n2)cc1 [Compound I-24, 3-amino-6-(4-(dimethylcarbamoyl)phenyl)-N-phenylpyrazine-2-carboxamide] | 10 to 100 nM
CS(=O)(=O)Nc1cccc(-c2cnc(N)c(C(=O)Nc3ccccc3)n2)c1 [Compound I-25, 3-amino-6-(3-(methylsulfonamido)phenyl)-N-phenylpyrazine-2-carboxamide] | 10 to 100 nM
Nc1ncc(-c2cccc(C(=O)N3CCOCC3)c2)nc1C(=O)Nc1ccc(N2CCCC2)cc1 [Compound I-26, 3-amino-6-(3-(morpholine-4-carbonyl)phenyl)-N-(4-(pyrrolidin-1-yl)phenyl)pyrazine-2-carboxamide] | 100 to 5000 nM
COc1ccccc1NC(=O)c1nc(-c2cccc(C(N)=O)c2)cnc1N [Compound I-27, 3-amino-6-(3-carbamoylphenyl)-N-(2-methoxyphenyl)pyrazine-2-carboxamide] | 10 to 100 nM
COc1ccccc1NC(=O)c1nc(-c2ccc(C(=O)N(C)C)cc2)cnc1N [Compound I-28, 3-amino-6-(4-(dimethylcarbamoyl)phenyl)-N-(2-methoxyphenyl) pyrazine-2-carboxamide] | ≤ 10 nM
COc1ccccc1NC(=O)c1nc(-c2ccc3[nH]ccc3c2)cnc1N [Compound I-29, 3-amino-6-(1H-indol-5-yl)-N-(2-methoxyphenyl)pyrazine-2-carboxamide] | 10 to 100 nM
COc1ccccc1NC(=O)c1nc(-c2ccco2)cnc1N [Compound I-30, 3-amino-6-(furan-2-yl)-N-(2-methoxyphenyl)pyrazine-2-carboxamide] | 10 to 100 nM
Nc1ncc(-c2ccn[nH]2)nc1C(=O)Nc1ccccc1 [Compound I-31, 3-amino-N-phenyl-6-(1H-pyrazol-5-yl)pyrazine-2-carboxamide] | 10 to 100 nM
Nc1ncc(-c2ccc(O)nc2)nc1C(=O)Nc1ccccc1 [Compound I-32, 3-amino-6-(6-hydroxypyridin-3-yl)-N-phenylpyrazine-2-carboxamide] | 10 to 100 nM
Nc1ncc(-c2ccncc2)nc1C(=O)Nc1ccccc1 [Compound I-33, 3-amino-N-phenyl-6-(pyridin-4-yl)pyrazine-2-carboxamide] | 100 to 5000 nM
Nc1ncc(-c2ccc(N3CCOCC3)nc2)nc1C(=O)Nc1ccccc1 [Compound I-34, 3-amino-6-(6-morpholinopyridin-3-yl)-N-phenylpyrazine-2-carboxamide] | 10 to 100 nM
COc1ccccc1NC(=O)c1nc(-c2cccs2)cnc1N [Compound I-35, 3-amino-N-(2-methoxyphenyl)-6-(thiophen-2-yl)pyrazine-2-carboxamide] | 10 to 100 nM
COc1ccccc1NC(=O)c1nc(-c2ccc3[nH]ncc3c2)cnc1N [Compound I-36, 3-amino-6-(1H-indazol-5-yl)-N-(2-methoxyphenyl)pyrazine-2-carboxamide] | 10 to 100 nM
COc1ccccc1NC(=O)c1nc(-c2ccoc2)cnc1N [Compound I-37, 3-amino-6-(furan-3-yl)-N-(2-methoxyphenyl)pyrazine-2-carboxamide] | 10 to 100 nM
COc1cc(-c2cnc(N)c(C(=O)Nc3ccccc3)n2)ccn1 [Compound I-38, 3-amino-6-(2-methoxypyridin-4-yl)-N-phenylpyrazine-2-carboxamide] | 10 to 100 nM
Nc1ncc(-c2ccc3[nH]ncc3c2)nc1C(=O)Nc1ccccc1 [Compound I-39, 3-amino-6-(1H-indazol-5-yl)-N-phenylpyrazine-2-carboxamide] | 10 to 100 nM
Nc1ncc(-c2cncnc2)nc1C(=O)Nc1ccccc1 [Compound I-40, 3-amino-N-phenyl-6-(pyrimidin-5-yl)pyrazine-2-carboxamide] | 100 to 5000 nM
Nc1ncc(-c2ccco2)nc1C(=O)Nc1ccccc1 [Compound I-41, 3-amino-6-(furan-2-yl)-N-phenylpyrazine-2-carboxamide] | 100 to 5000 nM
Nc1ncc(-c2ccc(C(=O)N3CCCNCC3)cc2)nc1C(=O)Nc1ccccc1 [Compound I-43, 6-(4-(1,4-diazepane-1-carbonyl)phenyl)-3-amino-N-phenylpyrazine-2-carboxamide] | 10 to 100 nM
COC1CN(C(=O)c2ccc(-c3cnc(N)c(C(=O)Nc4ccccc4)n3)cc2)C1 [Compound I-44, 3-amino-6-(4-(3-methoxyazetidine-1-carbonyl)phenyl)-N-phenylpyrazine-2-carboxamide] | 10 to 100 nM
